Assay results taken from BindingDB's records for patent WO2022079616 (NOVARTIS AG, 2022).

Legend:
[1] = molecular target: T1, Phosphatidylinositol 4-kinase (Cryptosporidium parvum (strain Iowa II), UniProt Q5CVD3); assay: PI(4)K enzymatic Assay
T1 sequence (Q5CVD3 whole entry): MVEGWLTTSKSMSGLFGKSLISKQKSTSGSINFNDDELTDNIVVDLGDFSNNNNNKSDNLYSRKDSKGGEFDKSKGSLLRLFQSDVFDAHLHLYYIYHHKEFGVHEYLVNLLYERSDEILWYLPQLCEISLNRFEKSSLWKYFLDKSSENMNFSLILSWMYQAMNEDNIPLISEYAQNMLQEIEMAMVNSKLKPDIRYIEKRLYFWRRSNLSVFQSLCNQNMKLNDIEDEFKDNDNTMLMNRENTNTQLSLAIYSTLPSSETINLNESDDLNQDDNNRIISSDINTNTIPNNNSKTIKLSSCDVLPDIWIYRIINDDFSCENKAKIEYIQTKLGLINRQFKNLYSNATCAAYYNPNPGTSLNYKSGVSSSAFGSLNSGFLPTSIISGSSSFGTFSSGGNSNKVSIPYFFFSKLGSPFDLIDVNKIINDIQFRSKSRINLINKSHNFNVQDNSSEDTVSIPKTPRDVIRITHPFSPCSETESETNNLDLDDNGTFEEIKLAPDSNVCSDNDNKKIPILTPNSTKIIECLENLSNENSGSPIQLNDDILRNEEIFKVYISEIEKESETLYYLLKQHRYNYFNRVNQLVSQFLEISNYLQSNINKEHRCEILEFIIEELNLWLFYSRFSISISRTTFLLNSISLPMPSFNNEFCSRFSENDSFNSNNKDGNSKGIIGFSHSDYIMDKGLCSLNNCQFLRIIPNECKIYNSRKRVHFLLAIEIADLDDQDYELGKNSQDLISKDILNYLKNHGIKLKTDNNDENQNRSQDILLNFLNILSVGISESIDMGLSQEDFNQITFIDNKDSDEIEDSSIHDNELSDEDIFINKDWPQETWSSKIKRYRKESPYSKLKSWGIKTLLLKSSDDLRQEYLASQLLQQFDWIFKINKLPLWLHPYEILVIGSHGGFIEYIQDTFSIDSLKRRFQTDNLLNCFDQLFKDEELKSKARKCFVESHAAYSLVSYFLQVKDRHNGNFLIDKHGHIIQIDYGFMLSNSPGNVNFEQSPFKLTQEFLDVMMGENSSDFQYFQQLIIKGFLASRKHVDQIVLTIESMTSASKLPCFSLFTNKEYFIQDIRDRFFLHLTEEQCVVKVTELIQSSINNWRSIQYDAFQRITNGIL
Source text: Baculovirus expression and purification of C. parvum phosphatidylinositol 4-kinase: The full-length coding sequence of C. parvum PI(4)K (cgd8_4500, 1114 amino acids) was codon-optimized for baculovirus expression, synthesized and cloned into pFastBac-HTb (Invitrogen 10584-027) in frame with the amino-terminal polyhistidine tag using the BamHI and HindIII restriction sites. Recombinant pFastBacHTb-CpPI(4)K bacmid clones were generated by site-specific transposition in E. coli DH10Bac (Invitrogen 10361-012). The bacmid sequence was confirmed by direct DNA sequencing to confirm a lack of mutations across the whole gene. The subsequent steps for bacmid isolation, transfection and selection of the recombinant viruses were performed according to the manufacturer s protocol (Bac-to-Bac system # 10359, Invitrogen).SF9 cells, cultured in SF-900 III serum-free medium, were transfected with recombinant baculovirus at 1/200 (v/v) and incubated at 27 °C for 72^h. The pellets were collected after centrifugation and re-suspended in cell lysis buffer (20^mM Tris-HCl, pH^7.5, 300^mM NaCl, 1mM DTT, 20mM imidazole, 0.01% Triton X-100 and 1×^complete protease inhibitor cocktail without EDTA (Roche Diagnostics 04693116001)). The cell suspension was lysed by sonication and the clarified supernatant was loaded onto a 1^ml HisTrap affinity column (GE Healthcare) pre-equilibrated with buffer A (20^mM Tris-HCl, pH^7.5, 300^mM NaCl, 1mM DTT, 20mM Imidazole, and 1×^complete protease inhibitor cocktail without EDTA). The column was washed with buffer B (buffer A containing 45 mM imidazole) and the bound protein of interest was eluted with buffer C (buffer A with 90^mM imidazole). The fractions containing CpPI(4)K were pooled, concentrated using Amicon Ultra-15 and purified by a gel-filtration column (Hi-Load 26/60 Superdex 200, GE Healthcare) equilibrated with 20^mM Tris, pH^7.5, 300^mM NaCl, 1^mM DTT and 1×^protease inhibitor cocktail without EDTA. The concentrations of the purified protein (Mw 132.39 kda) was determined by using the protein molar extinction coefficient (ε280^nm = 133,810^M−1^cm−1). Aliquots were flash frozen in liquid nitrogen and immediately stored at −80 °C.PI(4)K enzymatic Assay: The CpPI(4)K enzymatic assay was performed as described earlier with a some modifications (McNamara et al., 2013). Briefly, L-α-phosphatidylinositol (Avanti Polar Lipid 840046), dissolved in 3% n-octylglucoside (Roche Diagnostics 10634425001), was used as the lipid substrate for the PI(4)K activity assay. CpPI(4)K was assayed using Transcreener ADP2 FP detection kit (BellBrook 3010) in a black, solid 384-well plate (Corning 3575). The final assay volume was 10^μl and contained 3^nM of the respective CpPI(4)K construct in 10^mM Tris, pH^7.5, 1^mM DTT, 3^μM ATP, 5^mM Mn2+, 0.05% Triton X-100 and 10^μM phosphatidylinositol/octylglucoside. The enzyme reaction was performed for 50 minutes at room temperature and was stopped by adding 10^μl of detection mix containing 1×^stop buffer (50mM HEPES, pH7.5, 400mM NaCl, 20mM EDTA, and 0.02% Brij-35), 2^nM AMP Alexa Fluor 633 tracer, and 20^μg^ml−1 ADP antibody. Fluorescence polarization measurements were performed on the Infinite M1000 plate reader (Tecan) with λex = 635^nm and λem = 680^nm (20-nm bandwidth). IC50 values were calculated using Graphpad Prism software.

[2] = molecular target: PI3K/PI4K catalytic domain-containing protein (Cryptosporidium hominis, UniProt A0A0S4TH36)
PI3K/PI4K catalytic domain-containing protein, sequence (A0A0S4TH36 whole entry, the tested form may be a part): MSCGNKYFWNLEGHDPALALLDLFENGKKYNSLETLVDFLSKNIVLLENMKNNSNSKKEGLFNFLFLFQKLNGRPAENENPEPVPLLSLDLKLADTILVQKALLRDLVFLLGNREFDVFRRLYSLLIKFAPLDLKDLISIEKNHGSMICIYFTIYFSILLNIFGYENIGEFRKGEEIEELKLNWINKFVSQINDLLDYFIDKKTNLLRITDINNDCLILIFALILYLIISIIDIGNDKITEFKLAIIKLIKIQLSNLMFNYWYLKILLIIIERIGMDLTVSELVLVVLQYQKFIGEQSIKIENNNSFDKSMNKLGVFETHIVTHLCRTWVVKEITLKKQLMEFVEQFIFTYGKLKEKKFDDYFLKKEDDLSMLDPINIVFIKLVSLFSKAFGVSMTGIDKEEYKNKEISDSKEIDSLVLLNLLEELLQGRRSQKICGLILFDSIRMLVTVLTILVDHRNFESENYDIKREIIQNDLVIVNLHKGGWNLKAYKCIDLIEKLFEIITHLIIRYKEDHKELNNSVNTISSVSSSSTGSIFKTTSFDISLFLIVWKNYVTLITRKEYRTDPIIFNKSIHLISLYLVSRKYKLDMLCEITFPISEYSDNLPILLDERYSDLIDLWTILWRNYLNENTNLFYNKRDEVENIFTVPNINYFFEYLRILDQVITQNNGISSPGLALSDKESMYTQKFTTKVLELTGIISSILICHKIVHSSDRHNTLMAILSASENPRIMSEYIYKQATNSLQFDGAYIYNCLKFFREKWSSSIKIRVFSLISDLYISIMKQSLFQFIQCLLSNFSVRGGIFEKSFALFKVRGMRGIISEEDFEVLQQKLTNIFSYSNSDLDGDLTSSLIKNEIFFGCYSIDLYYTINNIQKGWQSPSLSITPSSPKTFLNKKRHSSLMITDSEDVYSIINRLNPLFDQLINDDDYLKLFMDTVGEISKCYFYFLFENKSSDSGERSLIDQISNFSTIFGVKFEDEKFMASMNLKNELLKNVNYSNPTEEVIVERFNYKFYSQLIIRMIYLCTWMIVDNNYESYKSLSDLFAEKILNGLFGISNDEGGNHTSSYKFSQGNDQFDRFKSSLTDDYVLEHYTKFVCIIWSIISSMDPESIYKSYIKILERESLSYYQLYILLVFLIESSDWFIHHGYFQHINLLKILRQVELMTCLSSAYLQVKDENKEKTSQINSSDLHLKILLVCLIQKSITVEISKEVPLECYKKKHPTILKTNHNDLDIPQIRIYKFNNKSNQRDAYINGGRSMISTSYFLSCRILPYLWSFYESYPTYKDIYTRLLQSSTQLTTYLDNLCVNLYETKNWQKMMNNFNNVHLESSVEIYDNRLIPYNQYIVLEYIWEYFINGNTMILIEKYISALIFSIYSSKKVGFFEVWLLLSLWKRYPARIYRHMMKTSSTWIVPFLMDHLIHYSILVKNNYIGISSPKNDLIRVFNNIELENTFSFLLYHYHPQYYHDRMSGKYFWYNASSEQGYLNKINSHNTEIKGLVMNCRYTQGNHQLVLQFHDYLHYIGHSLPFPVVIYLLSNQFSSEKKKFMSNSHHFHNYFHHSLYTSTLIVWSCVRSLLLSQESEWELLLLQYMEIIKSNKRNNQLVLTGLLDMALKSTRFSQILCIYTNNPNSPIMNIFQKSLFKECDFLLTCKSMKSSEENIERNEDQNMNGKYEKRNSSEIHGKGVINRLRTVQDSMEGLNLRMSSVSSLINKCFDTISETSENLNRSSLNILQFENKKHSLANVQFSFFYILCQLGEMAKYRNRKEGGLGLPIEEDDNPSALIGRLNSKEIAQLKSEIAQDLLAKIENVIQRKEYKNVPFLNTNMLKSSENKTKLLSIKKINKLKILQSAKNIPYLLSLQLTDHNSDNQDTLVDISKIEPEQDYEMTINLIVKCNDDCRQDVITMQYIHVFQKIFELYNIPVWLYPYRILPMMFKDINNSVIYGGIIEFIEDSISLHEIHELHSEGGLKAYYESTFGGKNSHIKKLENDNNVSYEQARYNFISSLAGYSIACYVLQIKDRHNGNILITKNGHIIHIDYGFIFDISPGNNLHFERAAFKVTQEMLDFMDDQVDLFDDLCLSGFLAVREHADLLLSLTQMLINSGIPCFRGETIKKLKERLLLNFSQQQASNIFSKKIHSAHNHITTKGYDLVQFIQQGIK

SMILES	IC50 [1] [nM]	IC50 [2] [nM]
COC(=O)c1cc(Cl)ccc1N(C)C(=O)c1ccn2ncc(-c3ccc(C(N)=O)cc3)c2c1 [WO2022079616, Example 4.1]	< 100	550
CNC(=O)c1ccc(-c2cnn3ccc(C(=O)N(C)c4ccc(Cl)c(C(=O)OC(C)(C)C)c4)cc23)cc1 [WO2022079616, Example 1.17]	< 100	
CN(C)C(=O)COC(=O)c1cc(N(C)C(=O)c2ccn3ncc(-c4ccc(C(N)=O)cc4)c3c2)ccc1Cl [WO2022079616, Example 1.12]	< 100	
COC(=O)c1cc(N(C)C(=O)c2ccn3ncc(-c4ccc(C(N)=O)cc4)c3c2)ccc1OC(F)(F)F [WO2022079616, Example 1.25]	< 100	> 1000
CN(C(=O)c1ccn2ncc(-c3ccc(C(N)=O)cc3)c2c1)c1ccc(Cl)c(C(=O)O)c1 [WO2022079616, Example 1.03]	< 100	
CN(C(=O)c1ccn2ncc(-c3ccc(C(N)=O)cc3)c2c1)c1ccc(Cl)c(C(=O)OC(C)(C)C)c1 [WO2022079616, Example 1.02]	< 100	
CCOC(=O)OC(C)OC(=O)c1cc(N(C)C(=O)c2ccn3ncc(-c4ccc(C(N)=O)cc4)c3c2)ccc1Cl (racemic) [WO2022079616, Example 1.14]	550	> 1000
CN(C(=O)c1ccn2ncc(-c3ccc(C(N)=O)cc3)c2c1)c1ccc(Cl)c(C(=O)OCCN2CCOCC2)c1 [WO2022079616, Example 1.08]	< 100	> 1000
CNC(=O)c1ccc(-c2cnn3ccc(C(=O)N(C)c4ccc(Cl)c(C(=O)OC)c4)cc23)cc1 [WO2022079616, Example 1.16]	< 100	550
CN(C(=O)c1ccn2ncc(-c3ccc(C(N)=O)cc3)c2c1)c1ccc(Cl)c(C(=O)OCC2CCCO2)c1 (racemic) [WO2022079616, Example 1.15]	< 100	
CC(C)OC(=O)c1cc(N(C)C(=O)c2ccn3ncc(-c4ccc(C(N)=O)cc4)c3c2)ccc1Cl [WO2022079616, Example 1.13]	< 100	
CNC(=O)c1ccc(-c2cnn3ccc(C(=O)N(C)c4ccc(Cl)c(C(=O)O)c4)cc23)cc1 [WO2022079616, Example 1.18]	< 100	550
CNC(=O)c1ccc(-c2cnn3ccc(C(=O)Nc4ccc(Cl)c(C(=O)OC)c4)cc23)cc1 [WO2022079616, Example 1.24]	> 1000	> 1000
CNC(=O)c1ccc(-c2cnn3ccc(C(=O)N(C)c4ccc(Cl)c(C(=O)OC)c4)cc23)cc1C [WO2022079616, Example 1.22]	550	> 1000
CSCCOC(=O)c1cc(N(C)C(=O)c2ccn3ncc(-c4ccc(C(N)=O)cc4)c3c2)ccc1Cl [WO2022079616, Example 1.04]	< 100	
CNC(=O)c1ccc(-c2cnc3cnc(C(=O)N(C)c4ccc(Cl)c(C(=O)OC)c4)cn23)cc1 [WO2022079616, Example 2.1]	< 100	> 1000
CNC(=O)c1ccc(-c2cnn3cnc(C(=O)N(C)c4ccc(Cl)c(C(=O)OC)c4)cc23)cc1 [WO2022079616, Example 3.1]	< 100	> 1000
COC(=O)c1cc(NC(=O)c2ccn3ncc(-c4ccc(C(N)=O)cc4)c3c2)ccc1Cl [WO2022079616, Example 1.23]	> 1000	> 1000
CNC(=O)c1ccc(-c2cnn3ccc(C(=O)N(C)c4ccc(OC(F)(F)F)c(C(=O)OC)c4)cc23)cc1 [WO2022079616, Example 1.26]	< 100	
CCOC(=O)c1cc(N(C)C(=O)c2ccn3ncc(-c4ccc(C(N)=O)cc4)c3c2)ccc1Cl [WO2022079616, Example 1.09]	< 100	
CC(C)COC(=O)c1cc(N(C)C(=O)c2ccn3ncc(-c4ccc(C(N)=O)cc4)c3c2)ccc1Cl [WO2022079616, Example 1.05]	< 100	
COC(=O)c1cc(N(C)C(=O)c2ccn3ncc(-c4ccc(C(N)=O)cc4)c3c2)ccc1C#N [WO2022079616, Example 1.27]	550	> 1000
CNC(=O)c1ccc(-c2cnn3ccc(C(=O)N(C)c4ccc(Cl)c(C(=O)OCCN5CCOCC5)c4)cc23)cc1 [WO2022079616, Example 1.19]	< 100	550
COC(=O)c1cc(N(C)C(=O)c2ccn3ncc(-c4ccc(C(N)=O)cc4C)c3c2)ccc1Cl [WO2022079616, Example 1.21]	< 100	> 1000
CN(C(=O)c1ccn2ncc(-c3ccc(C(N)=O)cc3)c2c1)c1ccc(Cl)c(C(=O)OCC(F)(F)F)c1 [WO2022079616, Example 1.10]	< 100	
COC(=O)COC(=O)c1cc(N(C)C(=O)c2ccn3ncc(-c4ccc(C(N)=O)cc4)c3c2)ccc1Cl [WO2022079616, Example 1.06]	< 100	
COCCOC(=O)c1cc(N(C)C(=O)c2ccn3ncc(-c4ccc(C(N)=O)cc4)c3c2)ccc1Cl [WO2022079616, Example 1.11]	< 100	
